How the values were obtained:
caspase-1 = assay: Rhegmatogenous retinal detachment (RRD) model: retinal caspase-1 cleavage by immunoblot; type: in vivo, mouse; conditions: day 3 RRD, equimolar IP doses twice daily (K-9H 60 mg/kg, 3TC 50 mg/kg)
Procedure: All experiments involving animals were approved by the University of Virginia Institutional Animal Care and Use Committee (IACUC) and adhered to the Association for Research in Vision and Ophthalmology (ARVO) Statement for the Use of Animals in Ophthalmic and Vision Research. Animal subjects were male and female mice aged 6 to 10 weeks. Wild type C57BL/6J mice were obtained from the Jackson Laboratory (Bar Harbor, ME, USA). To anesthetize mice for study procedures, ketamine hydrochloride (100 mg/kg; Ft. Dodge Animal Health, Overland Park, KS, USA) and xylazine (10 mg/kg; Phoenix Scientific, St. Joseph, MO, USA) were delivered by intraperitoneal (IP) injection. Pupils were dilated with topical 1% tropicamide and 2.5% phenylephrine (Alcon Laboratories, Ft. Worth, TX, USA).
RRD model was established by subretinal injection (SRI) of 3 μl 1% carboxymethyl cellulose (CMC; Refresh Liquigel, Allergan, Irvine, CA, USA).
NRTIs and K-9 were delivered via intraperitoneal (IP) injection in equimolar amounts. […] Kamuvudine K-9 (3-methyl-3TC, MW=273 g/mol) was administered either at a low dose (K-9L; 90 mg/kg daily) or a high dose (K-9H; 60 mg/kg twice daily, equimolar to NRTI doses). IP injection of phosphate buffered saline (PBS) was used as control.
Retinal tissue was extracted and lysed by sonication in radioimmunoprecipitation assay (RIPA) buffer (MilliporeSigma, Darmstadt, Germany). The Pierce BCA Protein Assay Kit (ThermoFisher Scientific, Waltham, MA, USA) was used to determine protein concentrations of interest. Samples were prepared that contained equal concentrations of total protein (10-100 μg). Protein samples were resolved by SDS-PAGE and transferred onto Immobilon-FL PVDF membranes (Millipore, Billerica, MA, USA). Membranes were blocked in Odyssey Blocking Buffer (PBS) for 1 hour at room temperature, and then incubated overnight with primary antibody at 4° C. Across study experiments, the following antibodies were used: anti-mouse caspase-1 (1:1000; AG-20B-0042; AdipoGen Life Sciences, San Diego, CA, USA), and anti-mouse GAPDH (1:1000; 2118; Cell Signaling, Danvers, MA, USA). […]

[1] = tested on: participants with center-involved diabetic macular edema (CI-DME); assay: Randomized clinical trial of oral lamivudine versus placebo in DME: ETDRS best-corrected visual-acuity letter score (VALS); type: in vivo, human
Procedure: A single center randomized clinical trial was conducted at a tertiary center in São Paulo, Brazil in accordance with the provisions of the Declaration of Helsinki and Good Clinical Practice guidelines. The study was approved by the local institutional review board and study participants provided written informed consent. This study was registered in the Brazilian Registry of Clinical Trials (ReBEC) under the number RBR-87b6r5s. Latinofarma (Brazil) provided the lamivudine and placebo at no cost and also provided funding for bevacizumab which was repackaged in single-used vials by Citopharma (Brazil).
Participants were excluded if they had high-risk proliferative diabetic retinopathy, received any intravitreous injection or laser photocoagulation within the previous 6 months, positive serology for human immunodeficiency virus or hepatitis B virus, or an estimated glomerular rate filtration below 40 mL/min/1.73 m^2 determined with the use of the Cockcroft-Gault equation.
Randomization was performed at the sealed envelope website (https://sealedenvelope.com), in permuted blocks and with stratification according to visual acuity in the study eye. One physician who was not involved with patient assessment was responsible for the randomization and vial delivery to the patients. The study participants, assessing physicians, and OCT technicians were unaware of the treatment group assignment at all visits.
Placebo vials were provided by the same pharmaceutical company responsible for lamivudine production using the same vehicle. The vials were concealed and delivered to the study center. […] At the 4-week visit, participants were administered an intravitreous injection of bevacizumab (1.25 mg in an injection volume of 0.05 ml) in eyes with CI-DME if the best-corrected visual-acuity letter score (VALS) was less than 69 and the retinal central subfield thickness was 325 μm or more. Injection of bevacizumab was performed by the same physician following topical anesthesia, installation of a sterile lid speculum, and application of povidone-iodine drops. No antibiotic was administered after the procedure.
Visual acuity assessment was performed by two certified assessing physicians. The same participant could be assessed by a different physician on each visit. The exam was performed using a back-illuminated 4-meter Early Treatment Diabetic Retinopathy Study (ETDRS) chart. Different ETDRS charts were used to refine the refraction and to assess the right and left eye at each visit. If fewer than 20 letters were correctly identified at 4 meters, testing was also performed at 1 meter adding+0.75 sphere. The refraction was performed without pupil dilation, in the same exam room with a standardized background illumination.
The principal analysis compared lamivudine to placebo. Change in mean VALS from baseline was the primary outcome of interest. We sought to detect a difference of 6 letters in the VALS between groups. This effect size was chosen for power analyses because this change corresponds to a difference of more than 1 line on the ETDRS or Snellen eye charts, the minimal increase in visual acuity judged to be clinically meaningful. By estimating the standard deviation to be 6 letters, we calculated that 16 eyes in each group would provide the trial with 80% power (at a 5% two-sided alpha level) to detect this difference.
To analyze the change in VALS from baseline, a mixed-effects model was employed. Random effects were included in the model to account for subject-specific variability. […] The model's estimates, confidence intervals (CI), and P values were reported for each predictor.
The exams took place at the beginning of the treatment and after 4 weeks of using the medication. At the 4-week return, […] were administered an intravitreous injection of Avastin, one of the standard anti-VEGF treatments for DME. Four weeks after the injection (8 weeks from the start of the study) participants underwent another eye examination. […]

SMILES: Nc1ccn([C@@H]2CS[C@H](CO)O2)c(=O)n1 [Lamivudine]
- degree of suppression of caspase-1 activation (caspase-1): 52%+8%
- Mixed model: change in visual acuity from baseline, Treatment (Lamivudine vs. Placebo), estimate ([1]; Table 4, weeks 4 and 8): 11.86
- Model-based contrast: change in visual acuity, Lamivudine - Placebo ([1]; change from baseline to week 4): 11.86
- Model-based contrast: change in visual acuity, Lamivudine - Placebo ([1]; change from baseline to week 8): 18.99
- percentage of eyes with improvement in VALS of 15 or more ([1]; week 4, oral lamivudine): 38%
- mean change in VALS from baseline ([1]; week 4, oral lamivudine 150 mg twice daily, before intravitreous bevacizumab): 9.8 letters
- mean improvement in VALS from baseline ([1]; week 8, oral lamivudine plus intravitreous bevacizumab 1.25 mg at week 4): 16.9 letters
- percentage of eyes with improvement in VALS of 15 or more ([1]; week 8, oral lamivudine plus intravitreous bevacizumab at week 4): 56%
